Data: patent US9873883B2, “Glyphosate resistant plants and associated methods” (Dow AgroSciences LLC, priority 2012, dated 2018)

Columns and labels:
[1] = target: T1, Brassica napus (canola) EPSP synthase DGT-3 (GENBANK P17688) variant DGT-3 v8 (T→I, P→S; TIPS) (Brassica napus, UniProt P17688, P178S/T174I); assay: In vitro kinetic assay (inorganic phosphate production, malachite green); assay type: biochemical
T1 construct: made in house; host or cells: E. coli Rosetta2 (DE3)
T1 sequence (P17688 73-516 T174I/P178S): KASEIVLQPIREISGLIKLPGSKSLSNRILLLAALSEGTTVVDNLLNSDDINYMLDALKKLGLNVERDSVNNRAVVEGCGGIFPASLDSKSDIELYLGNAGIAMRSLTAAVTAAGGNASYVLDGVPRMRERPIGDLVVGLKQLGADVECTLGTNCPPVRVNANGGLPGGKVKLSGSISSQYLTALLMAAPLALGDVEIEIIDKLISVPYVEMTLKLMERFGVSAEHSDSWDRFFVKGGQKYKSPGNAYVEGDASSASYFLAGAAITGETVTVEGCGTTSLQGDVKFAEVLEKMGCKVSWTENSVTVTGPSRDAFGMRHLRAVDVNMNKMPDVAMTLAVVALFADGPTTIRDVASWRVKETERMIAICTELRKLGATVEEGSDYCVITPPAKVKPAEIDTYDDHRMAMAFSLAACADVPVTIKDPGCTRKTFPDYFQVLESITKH
From the text: (§1) The following Class I enzymes: DGT-1 from Glycine max, DGT-3 from Brassica napus (GENBANK ACC NO: P17688), and DGT-7 from Triticum aestivum (GENBANK ACC NO: EU977181) were used as a comparison. The Class I EPSP synthase enzymes and mutant variants thereof were synthesized and evaluated. A mutation introduced into the plant EPSP synthase enzymes consisted of the Glycine to Alanine mutation made within the EPSP synthase enzyme at a similar location as that of the G96A mutation from the E. coli version of the enzyme. In addition, Threonine to Isoleucine and Proline to Serine mutations were introduced within these Class I EPSP synthase enzymes at analogous positions as that of amino acid 97 (T to I) and amino acid 101 (P to S) in the EPSP synthase of E. coli as described in Funke et al., (2009).
(§2) The location of the amino acid residue which was mutated from glycine to alanine is indicated by the first asterisk. The location of the amino acid residue which was mutated from threonine to isoleucine is indicated by the second asterisk. The location of the third amino acid residue which was mutated from proline to serine is indicated by the third asterisk. These mutations were introduced into different versions of DGT-1, DGT-3, and DGT-7. The different versions of the genes which contain the mutations are described in more detail below.
(§3) Additional constructs containing the dgt-1, dgt-3 and dgt-7 were synthesized. These constructs were used for in vitro testing of the dgt-1 v5, dgt-1 v6, dgt-1 v7, dgt-1 v8, dgt-3 v6, dgt-3 v7, dgt-3 v8, dgt-7 v5, dgt-7 v6, dgt-7 v7, and dgt-7 v8 gene sequences were outsourced to GeneArt for synthesis and cloning. The synthesized genes were cloned into the pET28 expression vector. The resulting constructions were labeled as pDAB102028 containing dgt-1 v5, pDAB102029 containing dgt-1 v6, pDAB102032 containing dgt-1 v7, pDAB102034 containing dgt-1 v8, pDAB100429 containing dgt-3 v6, pDAB100442 containing dgt-3 v7, pDAB100430 containing dgt-3 v8, pDAB102036 containing dgt-7 v5, pDAB102038 containing dgt-7 v6, pDAB102040 containing dgt-7 v7, and pDAB102042 containing dgt-7 v8.
(§4) Recombinant DGT proteins were overexpressed in Rosetta2™ (DE3) cells (Novagen, Madison, Wis.) from the constructs described above. A single colony was used to inoculate 50 mL starter cultures of LB containing chloramphenicol (25 μg/mL) and kanamycin (50 μg/mL) which were cultivated overnight at 37° C. The overnight cultures were used to inoculate 1 L of LB containing chloramphenicol (25 μg/mL) and kanamycin (50 μg/mL). The cultures were grown at 37° C. to an O.D.600=0.6 then placed in an ice water bath for 10 minutes. Expression of the target proteins was achieved by addition of IPTG to a final concentration of 500 μM. Induction was allowed to proceed overnight at 20° C. followed by harvesting via centrifugation at 8,000 rpm for 20 minutes. The cell pellets were stored at −80° C. until required for purification. All purification steps were carried out at 4° C.
(§5) Cell pellets from 1 L cultures were resuspended in 20-30 mL Buffer A (50 mM HEPES pH 7.5, 150 mM KCl, 2 mM DTT, 1 mM EDTA, 20 mM imidazole, and 5% glycerol). COMPLETE™ protease inhibitor cocktail (1 tablet/50 mL, Roche, Indianapolis, Ind.) and lysozyme (1 mg/mL, Sigma-Aldrich, St. Louis, Mo.) were then added and the suspension was stirred for 20 minutes. Cell lysis was performed using a Branson Sonifier 250 (3×60 second bursts) followed by removal of the cell debris by centrifugation at 16,000 rpm for 45 minutes. DGT enzymes were purified to homogeneity in one step via immobilized metal affinity chromatography (IMAC) using a 5 mL HisTrap FF crude column. The column was equilibrated in Buffer A and the sample was loaded in the same buffer. The column was then washed with 10 column volumes of Buffer A followed by elution in a 0-100% Buffer B (50 mM HEPES pH 7.5, 200 mM KCl, 2 mM DTT, 1 mM EDTA, 500 mM imidazole, and 5% glycerol) linear gradient over 25 column volumes. […]

[2] = target: T2, Triticum aestivum (wheat) EPSP synthase DGT-7 variant DGT-7 v6 (G→A) (Triticum aestivum, UniProt B5M6A1, G167A); assay: as above; assay type: biochemical; conditions: for IC50: IC50 (glyphosate)
T2 sequence (B5M6A1 with tags, fused parts or gaps G167A): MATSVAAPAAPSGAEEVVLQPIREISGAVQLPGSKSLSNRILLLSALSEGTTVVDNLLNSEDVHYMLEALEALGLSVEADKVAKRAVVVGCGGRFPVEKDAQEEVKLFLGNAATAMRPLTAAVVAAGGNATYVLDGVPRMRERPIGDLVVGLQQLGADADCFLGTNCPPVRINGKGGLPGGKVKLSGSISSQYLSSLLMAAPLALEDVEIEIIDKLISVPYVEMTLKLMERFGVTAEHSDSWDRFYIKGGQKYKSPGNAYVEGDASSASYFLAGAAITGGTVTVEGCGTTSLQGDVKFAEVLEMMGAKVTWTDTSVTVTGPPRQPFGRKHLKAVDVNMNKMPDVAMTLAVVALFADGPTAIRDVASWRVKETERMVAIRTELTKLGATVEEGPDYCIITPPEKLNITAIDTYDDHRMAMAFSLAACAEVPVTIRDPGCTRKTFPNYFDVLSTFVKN
From the text: as §1, §2, §3, §4, §5

SMILES	kcat/Km ([1]; PEP, pH 7.5, 1 mM S3P)	increase of Km for PEP ([2]; G to A mutation vs un-mutated)	IC50 ([1]; IC50 (glyphosate), at 60 μM PEP)	IC50 ([1]; IC50 (glyphosate), at 1 mM PEP)	IC50 ([1]; tolerance to glyphosate, PEP concentration not given)	IC50 ([2]; at 60 μM PEP)	IC50 ([2]; at 1 mM PEP)
C=C(OP(=O)(O)O)C(=O)O [PEP, phosphoenolpyruvate]	32900 M⁻¹ s⁻¹	~8 fold					
O=C(O)CNCP(=O)(O)O [glyphosate, N-(phosphonomethyl)glycine]			4.8 mM	13.3 mM	3 to 6 mM	15.1 mM	8.1 mM
